From PubChem BioAssay (NCI)
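Cultured in 96-well plates, cells were exposed to test compound for 48 hours across five concentrations. Here, GI50 denotes the concentration required for 50% inhibition of growth. TGI: total growth inhibition.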

Tests used:
Assay in all cases: NCI-60 cell line screen, 48 h
[1] = system: NCI-H23 lung
[2] = system: NCI-H460 lung
[3] = system: NCI-H522 lung
[4] = system: NCI/ADR-RES ovarian
[5] = system: OVCAR-3 ovarian
[6] = system: OVCAR-4 ovarian
[7] = system: OVCAR-5 ovarian
[8] = system: OVCAR-8 ovarian
[9] = system: PC-3 prostate
[10] = system: RPMI-8226 leukemia
[11] = system: RXF 393 renal
[12] = system: SF-268 CNS
[13] = system: SF-295 CNS
[14] = system: SF-539 CNS
[15] = system: SK-MEL-2 melanoma
[16] = system: SK-MEL-28 melanoma
[17] = system: SK-MEL-5 melanoma
[18] = system: SK-OV-3 ovarian
[19] = system: SN12C renal
[20] = system: SNB-19 CNS
[21] = system: SNB-75 CNS
[22] = system: SR leukemia
[23] = system: SW-620 colon
[24] = system: T-47D breast
[25] = system: TK-10 renal
[26] = system: U251 CNS
[27] = system: UACC-257 melanoma
[28] = system: UACC-62 melanoma
[29] = system: UO-31 renal

COc1ccccc1-n1c(-c2cc(O)ccc2C)cn2c3c(=O)[nH]c(=O)n(C)c3nc12
TGI [1]: > 100 µM | GI50 [2]: > 100 µM | TGI [2]: > 100 µM | GI50 [3]: 1.79 µM | TGI [3]: > 100 µM | GI50 [4]: > 100 µM | TGI [4]: > 100 µM | GI50 [5]: 4.28 µM | TGI [5]: > 100 µM | GI50 [6]: > 100 µM | TGI [6]: > 100 µM | GI50 [7]: 28.1 µM | TGI [7]: > 100 µM | GI50 [8]: 10.9 µM | TGI [8]: > 100 µM | GI50 [9]: > 100 µM | TGI [9]: > 100 µM | GI50 [10]: > 100 µM | TGI [10]: > 100 µM | GI50 [11]: 0.872 µM | TGI [11]: 4.11 µM | GI50 [12]: 5.07 µM | TGI [12]: > 100 µM | GI50 [13]: 5.34 µM | TGI [13]: > 100 µM | GI50 [14]: 8.86 µM | TGI [14]: > 100 µM | GI50 [15]: > 100 µM | TGI [15]: > 100 µM | GI50 [16]: > 100 µM | TGI [16]: > 100 µM | GI50 [17]: 53.2 µM | TGI [17]: > 100 µM | GI50 [18]: 2.78 µM | TGI [18]: > 100 µM | GI50 [19]: 4.85 µM | TGI [19]: > 100 µM | GI50 [20]: > 100 µM | TGI [20]: > 100 µM | GI50 [21]: 0.129 µM | TGI [21]: 1.12 µM | GI50 [22]: 66 µM | TGI [22]: > 100 µM | GI50 [23]: > 100 µM | TGI [23]: > 100 µM | GI50 [24]: 42.4 µM | TGI [24]: > 100 µM | GI50 [25]: 13.3 µM | TGI [25]: 48.7 µM | GI50 [26]: 22.2 µM | TGI [26]: > 100 µM | GI50 [27]: > 100 µM | TGI [27]: > 100 µM | GI50 [28]: > 100 µM | TGI [28]: > 100 µM | GI50 [29]: 9.33 µM | TGI [29]: > 100 µM
